In article PMC10112268, “Inhibition of Human Coronaviruses by Combinations of Host-Targeted and Direct-Acting Antivirals” (Antimicrobial Agents and Chemotherapy, 2023):
Read-outs that look alike come from different tables or passages of the source.

Experiments:
HCoV-229E-GFP [1] = test: microbe, parasite or virus in culture; assay type: cell-based; details: for IC50: Human coronavirus 229E
HCoV-OC43 [2] = test: microbe, parasite or virus in culture; assay type: cell-based
[3] = test system: SARS-CoV-2 isolate MAD6 (Wuhan-Hu-1 strain); test: Virus yield inhibition in infected Calu3 2B4 cells, plaque assay on Vero E6; assay type: cell-based; details: for IC50 / SARS-CoV-2 isolate MAD6 titers: 24 hpi; for IC50: read-out: IC50, virus yield; for SARS-CoV-2 titers: at 100 μM, Fig. 3, no drug 3.±0.1 × 10^5; for SARS-CoV-2 isolate MAD6 titers: no drug 3.4 ± 1 × 10^5
in vitro [4] = details: African green monkey
HCoV-229E-GFP [5] = assay type: cell-based; details: no drug 3.5 ± 0.6 × 10^6
[6] = test system: SARS-CoV-2 isolate 39896362_AG (omicron strain); test: microbe, parasite or virus in culture; assay type: cell-based; details: for IC50: Severe acute respiratory syndrome coronavirus 2, Vero C1008, omicron strain, AV from 1 h before adsorption, read-out: IC50, virus yield; for IC50 / SARS-CoV-2 isolate 39896362_AG titers: Fig. 1; for SARS-CoV-2 isolate 39896362_AG titers: no drug 1 ± 0.1 × 10^5
in vitro [7] = details: human
HCoV-OC43 [8] = assay type: cell-based; details: no drug 3.2 ± 0.2 × 10^6
in vitro [9] = details: human, CC50 (MTT assay), Huh-7
in vitro [10] = details: human, CC50 (MTT assay), HCT-8
SARS-CoV-2 (MAD6) = test: Drug combination (synergy) study, virus yield in Calu3 2B4, CompuSyn; assay type: cell-based; details: for SARS-CoV-2 titers: no drug 3.2 ± 0.2 × 10^5; for average DRI: for the named drug over its combinations, at Fa = 0.5 to 0.95
HCoV-229E-GFP [11] = test: Time of addition assay; assay type: cell-based; details: for IC50: Human coronavirus 229E, 24 hpi
HCoV-OC43 [12] = test: Time of addition assay; assay type: cell-based; details: for IC50: 48 hpi
HCoV-OC43 [13] = test: Direct virucidal effect on virus particles; details: 10^5 PFU, 1 h at room temperature; LG 0 to 300 μM, VPA 0 to 300 mM
[14] = test system: HCoV-229E, HCoV-OC43, and SARS-CoV-2; test: Antiviral assays, summary over all tested HCoVs; assay type: cell-based, human coronaviruses
TGEV = test: Antiviral effect against TGEV in WSL or ST cells, plaque assay on ST; assay type: cell-based, swine coronavirus TGEV; details: LG in WSL cells, VPA in ST cells
Description: Figure S2. […] The inhibitory effect […]
of LG or VPA was assayed on triplicate cultures of TGEV-infected WSL (wild swine macrophage cell line) or ST (swine testis) cells, respectively. After 1 h-pre-incubation with AVs, triplicate cultures were infected with the corresponding virus, at a MOI of 2 PFU/cell, in a reduced volume of medium containing the AV, for 2h, virus inoculum removed and cells washed twice with medium, before the addition of drug-containing fresh medium (supplemented with 2% FBS). Cultures were then incubated for 24 h at 37 °C; total virus (intracellular and extracellular) production was evaluated by plaque assay on triplicate cultures of ST cells. Left y-axis represents infectious virus progeny at 24 hpi and right y-axis, cell viability determined by MTT assay of each corresponding cell line. IC50 values and SI values […]
[TGEV titers (PFU/ml): 1.1±0.1 x 108 in the absence of the drugs, […]
(1 picture or pasted object on this page, not shown here)

[15] = test system: SARS-CoV-2 isolate MAD6 (Wuhan-Hu-1 strain); test: Time of addition assay; assay type: cell-based; details: for IC50: 24 hpi, read-out: IC50, SARS-CoV-2 production
SARS-CoV-2 = test: Direct virucidal effect on virus particles; details: 10^5 PFU, 1 h at room temperature; LG 0 to 300 μM, VPA 0 to 300 mM
HCoV-229E-GFP [16] = test: Direct virucidal effect on virus particles; details: 10^5 PFU, 1 h at room temperature; LG 0 to 300 μM, VPA 0 to 300 mM
[17] = at 100 μM, Fig. 3, no drug 4 ± 0.9 × 10^6
[18] = Betacoronavirus 1, OC43, Huh-7, read-out: IC50, virus yield, specificity experiment (Fig. 3), Huh-7, 48 hpi
[19] = at 100 μM, Fig. 3, no drug 1.8 ± 0.9 × 10^6
[20] = Severe acute respiratory syndrome coronavirus 2, Calu-3 2B4, specificity experiment (Fig. 3), Calu3 2B4
[21] = Huh-7, read-out: IC50, virus yield, Huh-7, AV from 1 h before adsorption, 24 hpi, Fig. 1
[22] = Betacoronavirus 1, OC43, Huh-7, read-out: IC50, virus yield, Huh-7, AV from 1 h before adsorption, 48 hpi, Fig. 1

## CCCOC(=O)c1cc(O)c(O)c(O)c1 [PG, propyl gallate]
HCoV-229E-GFP [1]; Huh-7, Fig. 3
  inhibition of viral multiplication at nontoxic concentrations: Neither G nor PG inhibited viral multiplication
HCoV-229E-GFP [1]; [17]
  HCoV-229E-GFP titers: 2.2 ± 0.3 × 10^6 PFU/mL
HCoV-OC43 [2]; [18]
  IC50: 22.5 µM
HCoV-OC43 [2]; Huh-7, Fig. 3
  inhibition of viral multiplication at nontoxic concentrations: Neither G nor PG inhibited viral multiplication
HCoV-OC43 [2]; [19]
  HCoV-OC43 titers: 1.2 ± 0.3 × 10^6 PFU/mL

## CCCCCCCCOC(=O)c1cc(O)c(O)c(O)c1 [OG, octyl gallate]
HCoV-229E-GFP [1]; Huh-7, read-out: IC50, virus yield, specificity experiment (Fig. 3), Huh-7, 24 hpi
  IC50: 3.9 µM
HCoV-229E-GFP [1]; [17]
  HCoV-229E-GFP titers: 1.4 ± 0.5 × 10^3 PFU/mL
HCoV-OC43 [2]; [18]
  IC50: 2.56 µM
HCoV-OC43 [2]; [19]
  HCoV-OC43 titers: 5 ± 0.01 × 10^1 PFU/mL

## O=C(O[C@@H]1Cc2c(O)cc(O)cc2O[C@@H]1c1ccc(O)c(O)c1)c1cc(O)c(O)c(O)c1 [ECG, epicatechin gallate]
[3]; [20]
  IC50: 0.0501 mM
[3]
  SARS-CoV-2 titers: 6 ± 0.3 × 10^4 PFU/mL

## O=C(O)c1cc(O)c(O)c(O)c1 [G, gallic acid]
[3]; [20]
  IC50: 0.0405 mM
[3]
  SARS-CoV-2 titers: 7.5 ± 0.2 × 10^4 PFU/mL
HCoV-229E-GFP [1]; Huh-7, Fig. 3
  inhibition of viral multiplication at nontoxic concentrations: Neither G nor PG inhibited viral multiplication
HCoV-229E-GFP [1]; [17]
  HCoV-229E-GFP titers: 3.1 ± 0.2 × 10^6 PFU/mL
HCoV-OC43 [2]; Huh-7, Fig. 3
  inhibition of viral multiplication at nontoxic concentrations: Neither G nor PG inhibited viral multiplication
HCoV-OC43 [2]; [19]
  HCoV-OC43 titers: 1.2 ± 0.2 × 10^6 PFU/mL

## CCC(CC)COC(=O)[C@H](C)N[P@](=O)(OC[C@H]1O[C@@](C#N)(c2ccc3c(N)ncnn23)[C@H](O)[C@@H]1O)Oc1ccccc1 [RDV, remdesivir]
[3]; SARS-CoV-2 Wuhan-Hu-1, Calu3 2B4
  selectivity index (SI=CC50/IC50): 102
[3]; Severe acute respiratory syndrome coronavirus 2, Calu-3 2B4, Calu3 2B4, Wuhan-Hu-1 strain, AV from 1 h before adsorption, Fig. 1
  IC50: 0.00107 mM
[3]; at RDV 20 μM, Fig. 1
  SARS-CoV-2 isolate MAD6 titers: 6 ± 0.3 × 10^2 PFU/mL
In vitro [4]
  CC50: 0.085 mM
HCoV-229E-GFP [5]; at 160 nM RDV
  HCoV-229E-GFP titers: 4 ± 0.2 × 10^2 PFU/mL
[6]; SARS-CoV-2 omicron, Vero E6
  selectivity index (SI=CC50/IC50): 52
[6]; Vero E6
  IC50: 0.00163 ± 0.0002 mM
[6]; at RDV 32 μM
  SARS-CoV-2 isolate 39896362_AG titers: 5 ± 0.01 × 10^1 PFU/mL
In vitro [7]
  CC50: 0.109 mM
HCoV-229E-GFP [1]
  selectivity index (SI=CC50/IC50): 1732
HCoV-229E-GFP [1]; [21]
  IC50: 0.0144 ± 0.0041 µM
HCoV-229E-GFP [1]; at RDV 500 nM, 24 hpi, no drug 3 ± 0.5 × 10^6, Fig. 1
  HCoV-229E-GFP titers: 6 ± 0.1 × 10^2 PFU/mL
HCoV-OC43 [8]; at 320 nM RDV
  HCoV-OC43 titers: 1.6 ± 0.2 × 10^4 PFU/mL
In vitro [9]; 24 h cell incubation with AV
  CC50: 0.025 mM
In vitro [9]; 48 h cell incubation with AV
  CC50: 0.02 mM
In vitro [10]; 24 h cell incubation with AV
  CC50: 0.043 mM
In vitro [10]; 48 h cell incubation with AV
  CC50: 0.038 mM
SARS-CoV-2 (MAD6); at 8 μM RDV
  SARS-CoV-2 titers: 1.7 ± 0.2 × 10^3 PFU/mL
SARS-CoV-2 (MAD6)
  average DRI: 4.31
HCoV-OC43 [2]; [22]
  IC50: 0.046 µM
HCoV-OC43 [2]; HCoV-OC43, Huh-7
  selectivity index (SI=CC50/IC50): 435
HCoV-OC43 [2]; at RDV 500 nM, 48 hpi, no drug 3.1 ± 0.9 × 10^6, Fig. 1
  HCoV-OC43 titers: 6 ± 0.1 × 10^2 PFU/mL

## CCCC(CCC)C(=O)O [VPA, valproic acid]
[3]; at VPA 100 mM, Fig. 1
  SARS-CoV-2 isolate MAD6 titers: 5 ± 0.01 × 10^1 PFU/mL
HCoV-229E-GFP [5]; at 32 mM VPA
  HCoV-229E-GFP titers: 5 ± 0.3 × 10^2 PFU/mL
HCoV-229E-GFP [11]; read-out: IC50, HCoV-229E-GFP production, AV added 0 hpi
  IC50: 9.64 mM
HCoV-229E-GFP [11]; read-out: IC50, HCoV-229E-GFP production, AV added 2 hpi
  IC50: 9.49 mM
HCoV-229E-GFP [11]; read-out: IC50, HCoV-229E-GFP production, AV added −3 hpi (1 h before adsorption)
  IC50: 9.48 mM
HCoV-229E-GFP [11]; at 40 mM VPA, average of addition times, no drug 4 ± 0.6 × 10^6
  HCoV-229E-GFP average titers: 6 ± 2 × 10^2 PFU/mL
HCoV-OC43 [12]; Betacoronavirus 1, OC43, read-out: IC50, HCoV-OC43 production, AV added 0 hpi
  IC50: 9.69 mM
HCoV-OC43 [12]; Betacoronavirus 1, OC43, read-out: IC50, HCoV-OC43 production, AV added 2 hpi
  IC50: 9.49 mM
HCoV-OC43 [12]; Betacoronavirus 1, OC43, read-out: IC50, HCoV-OC43 production, AV added −3 hpi (1 h before adsorption)
  IC50: 9.87 mM
HCoV-OC43 [12]; at 40 mM VPA, average of addition times, no drug 3.5 ± 0.5 × 10^6
  HCoV-OC43 average titers: 5 ± 0.01 × 10^1 PFU/mL
[6]; Vero E6
  IC50: 5.15 ± 0.3 mM
[6]; at VPA 128 mM
  SARS-CoV-2 isolate 39896362_AG titers: 1 ± 0.1 × 10^2 PFU/mL
HCoV-OC43 [13]
  direct virucidal effect (change in virus titers): No decrease in virus titers
HCoV-229E-GFP [1]; [21]
  IC50: 9480 ± 1100 µM
HCoV-229E-GFP [1]; at VPA 40 mM, 24 hpi, no drug 3 ± 0.5 × 10^6, Fig. 1
  HCoV-229E-GFP titers: 2.5 ± 0.3 × 10^2 PFU/mL
HCoV-OC43 [8]; at 32 mM VPA
  HCoV-OC43 titers: 5 ± 0.01 × 10^1 PFU/mL
[14]; average over all tested HCoVs, read-out: average IC50 value
  IC50: 7.2 mM
[14]; range over tested HCoVs, read-out: IC50 values, range over HCoVs
  IC50: 5 to 9 mM
In vitro [9]; 24 h cell incubation with AV
  CC50: 70 mM
In vitro [9]; 48 h cell incubation with AV
  CC50: 66 mM
TGEV
  inhibition of TGEV multiplication: inhibited the multiplication
In vitro [10]; 24 h cell incubation with AV
  CC50: 95.7 mM
In vitro [10]; 48 h cell incubation with AV
  CC50: 76.2 mM
SARS-CoV-2 (MAD6); at 16 mM VPA
  SARS-CoV-2 titers: 4 ± 0.1 × 10^4 PFU/mL
SARS-CoV-2 (MAD6)
  average DRI: 5.19
HCoV-OC43 [2]; [22]
  IC50: 9330 ± 2100 µM
HCoV-OC43 [2]; at VPA 40 mM, 48 hpi, no drug 3.1 ± 0.9 × 10^6, Fig. 1
  HCoV-OC43 titers: 1.2 ± 0.1 × 10^2 PFU/mL
[15]; Severe acute respiratory syndrome coronavirus 2, AV added 0 hpi
  IC50: 5.02 mM
[15]; Severe acute respiratory syndrome coronavirus 2, AV added 2 hpi
  IC50: 5.04 mM
[15]; Severe acute respiratory syndrome coronavirus 2, AV added −2 hpi (1 h before adsorption)
  IC50: 4.99 mM
[15]; at 100 mM VPA, average of addition times, no drug 3.4 ± 0.2 × 10^5
  SARS-CoV-2 average titers: 5 ± 0.01 × 10^1 PFU/mL
SARS-CoV-2
  direct virucidal effect (change in virus titers): No decrease in virus titers
HCoV-229E-GFP [16]
  direct virucidal effect (change in virus titers): No decrease in virus titers
